# How the values were obtained:
# Assay in all cases: relative viability (nuclei count vs DMSO), 5 days (fraction); higher = more cells survive
# [1] = compound: C1=CC2=C(C=C(C(=C2N=C1)O)N=NC3=CC4=C(C=C3)C=C(C=C4)S(=O)(=O)O)S(=O)(=O)O + Cc1nc(Nc2ncc(C(=O)Nc3c(C)cccc3Cl)s2)cc(N2CCN(CCO)CC2)n1 [Dasatinib] (partner 0.075 µM)
# Method in brief: (§1)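 Lung cancer cell lines in 1536-well plates got either a single drug or a fixed anchor-drug dose together with five library-drug doses (not always all listed) in √10 steps, by pin tool, on the day after seeding. Nuclei were counted after 5 days, and relative viability is the treated-to-vehicle ratio of nuclei counts. Values are medians of duplicate plates.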
# AT-7519 + Pemetrexed = compound: O=C(NC1CCNCC1)c1n[nH]cc1NC(=O)c1c(Cl)cccc1Cl [AT-7519] + Nc1nc2[nH]cc(CCc3ccc(C(=O)N[C@@H](CCC(=O)O)C(=O)O)cc3)c2c(=O)[nH]1 [Pemetrexed] (partner 0.2 µM)
# Method in brief: as §1
# AT-7519 + Bortezomib = compound: O=C(NC1CCNCC1)c1n[nH]cc1NC(=O)c1c(Cl)cccc1Cl [AT-7519] + CC(C)C[C@H](NC(=O)[C@H](Cc1ccccc1)NC(=O)c1cnccn1)B(O)O [Bortezomib] (partner 0.002 µM)
# Method in brief: as §1
# AT-7519 + Tozasertib = compound: O=C(NC1CCNCC1)c1n[nH]cc1NC(=O)c1c(Cl)cccc1Cl [AT-7519] + Cc1cc(Nc2cc(N3CCN(C)CC3)nc(Sc3ccc(NC(=O)C4CC4)cc3)n2)n[nH]1 [Tozasertib] (partner 0.1 µM)
# Method in brief: as §1
Cell Line,relative viability ([1]; first compound 0.08 µM),relative viability ([1]; first compound 0.253 µM),relative viability ([1]; first compound 0.8 µM),relative viability ([1]; first compound 2.53 µM),relative viability ([1]; first compound 8 µM),relative viability (AT-7519 + Pemetrexed; first compound 0.01 µM),relative viability (AT-7519 + Pemetrexed; first compound 0.03162 µM),relative viability (AT-7519 + Pemetrexed; first compound 0.3162 µM),relative viability (AT-7519 + Pemetrexed; first compound 1 µM),relative viability (AT-7519 + Bortezomib; first compound 0.01 µM),relative viability (AT-7519 + Bortezomib; first compound 0.03162 µM),relative viability (AT-7519 + Bortezomib; first compound 0.3162 µM),relative viability (AT-7519 + Bortezomib; first compound 1 µM),relative viability (AT-7519 + Tozasertib; first compound 0.01 µM),relative viability (AT-7519 + Tozasertib; first compound 0.03162 µM),relative viability (AT-7519 + Tozasertib; first compound 0.3162 µM),relative viability (AT-7519 + Tozasertib; first compound 1 µM)
NCI-H322M,0.252,0.251,0.234,0.27,0.274,0.563,0.623,0.469,0.543,1.2,1.26,1.27,1.52,0.493,0.497,0.361,0.196
NCI-H441,0.574,0.587,0.568,0.59,0.679,0.283,0.266,0.263,0.198,0.449,0.394,0.671,0.497,0.788,0.565,0.573,0.343
NCI-H460,0.515,0.536,0.492,0.489,0.522,0.0626,0.0564,0.0558,0.0636,1.05,0.91,0.533,0.046,0.699,0.473,0.462,0.193
NCI-H520,0.185,0.206,0.204,0.157,0.176,0.815,0.635,0.619,0.389,0.745,0.628,0.413,0.323,0.438,0.453,0.399,0.385
NCI-H596,0.651,0.685,0.554,0.727,0.703,0.473,0.501,0.459,0.513,1.08,1.13,0.882,1.03,0.78,0.811,1,0.849
NCI-H647,0.212,0.169,0.151,0.143,0.194,0.142,0.159,0.177,0.129,1.04,0.909,1.21,0.564,0.44,0.218,0.22,0.227
NCI-H650,0.412,0.433,0.496,0.462,0.342,1.07,1,0.931,1.25,0.827,0.75,0.86,0.975,0.784,0.646,0.716,0.675
NCI-H661,0.938,0.877,0.903,0.93,0.817,0.945,0.953,0.99,0.262,0.743,0.755,0.786,0.567,0.378,0.352,0.392,0.314
NCI-H838,0.292,0.25,0.283,0.3,0.29,0.247,0.246,0.281,0.115,0.644,0.804,0.416,0.0826,0.315,0.277,0.291,0.187
NCI-H1355,0.764,0.754,0.708,0.77,0.665,1.04,1.03,1.06,0.974,1.26,1.16,1.31,1.29,0.566,0.535,0.537,0.508
NCI-H1437,0.351,0.402,0.43,0.383,0.301,0.325,0.326,0.35,0.229,0.448,0.514,0.494,0.307,0.418,0.399,0.402,0.34
NCI-H1650,0.34,0.315,0.338,0.332,0.227,0.376,0.35,0.323,0.197,0.19,0.203,0.183,0.194,0.532,0.436,0.392,0.148
NCI-H1651,0.451,0.3,0.416,0.406,0.466,0.677,0.562,0.556,0.744,0.912,0.917,0.971,0.974,0.7,0.679,0.646,0.556
NCI-H1666,0.866,0.755,0.793,0.816,0.741,0.871,0.777,0.828,0.651,0.782,0.794,0.733,0.333,0.539,0.571,0.501,0.413
NCI-H1734,0.583,0.346,0.428,0.44,0.48,0.426,0.435,0.383,0.366,0.782,0.884,0.842,0.442,0.296,0.261,0.25,0.102
NCI-H1755,0.483,0.475,0.455,0.433,0.536,0.413,0.461,0.566,0.442,0.927,1.09,0.976,0.969,0.489,0.618,0.578,0.547
NCI-H1915,0.311,0.321,0.29,0.316,0.314,0.5,0.494,0.516,0.501,1.07,1.06,0.546,0.944,0.482,0.461,0.456,0.347

# Source: the supplement of paper PMC10307832
